Results taken from patent US20220233523A1, “ANTIBIOTIC POTENTIATION FOR NONTUBERCULOUS MYCOBACTERIAL DISEASE” (priority 2019, published 2022).
Several values for one entry are separate records, joined by “and”; a condition that tells them apart may be missing. Equal values may be shown once. Marks after values point to notes of the source that are not given here.

Key:
[1] = cited from earlier work
MAH104 biofilms = format: cell-based, Mycobacterium avium subsp hominissuis 104 (MAH104); details: for metabolized by biofilm cultures: Biolog PM1/PM2A plates; for Biofilm (metabolite used): Biolog PM1/PM2A substrates, 7 days at 37° C., end-point assay; for lower capacity of biofilms to use the substrate compared with planktonic cultures: O.D.590 nm, biofilm vs planktonic
Description: (§1) Metabolic phenotype study was performed with planktonic and biofilm cultures using the 96-well plates PM1 and PM2A (BIOLOG™, Hayward, Calif.). The assays with planktonic cells and biofilms were made at the same time. Each plate contains carbon substrates and one negative control well, in which the bacteria is tested without any substrate. The tests with planktonic and biofilm cultures were performed at the same time and the culture inoculum have the same number of passages. […] The experiments were made as an end-point assay.
The cultures of biofilms were established for 7 days in regular polystyrene 96 well plates, not in PM Biolog plates, as described above with a minor difference. […] (total of 14 days of biofilm incubated at 37° C.). To obtain spectrophotometric measurements from biofilm cultures (O.D.590 nm), the plate was centrifuged for 20 minutes at 3500 rpm at 20° C., which reduce bacteria interference with the readings, and biofilm supernatant was transferred to a new 96 well plates for O.D.590 nm measurement.
(§2) Experiments were performed three times as an end-point assay. If planktonic and/or biofilm cultures were able to metabolize a specific metabolite substrate, electrons from NADH reduce the Redox dye in an irreversible reaction that generates a purple color in the PM plate wells. The signal (+) and (−) indicates, respectively, whether a purple color was produced or not. Abiotic reductions of the Redox dye were assessed through adding bacteria-free GN/GP-IF-0a fluid in the wells. Negative control corresponds to the wells without any metabolic substrate.

[2] = tested on: planktonic MAH104 cultures; format: cell-based, Mycobacterium avium subsp hominissuis 104 (MAH104); details: for Planktonic (metabolite used): Biolog PM1/PM2A plates, 7 days at 37° C., end-point assay
Description: as §1
To prepare the inoculum of planktonic cells for PM plates, MAH104 was cultivated in 7H9 medium with 10% OADC and 0.05% of tween20. After the cells reached a mid-logarithmic phase (O.D. at 595 nm=0.3 to 0.6), the cultures were harvested and washed three times with deionized water (centrifugation conditions; 3500 rpm for 20 minutes at 20° C.) and incubated in water for 24 hours at 25° C. as a starvation step. […] A volume of 100 μl of this final bacteria suspension was inoculated into the wells of PM1 and PM2A plates. These plates were incubated for 7 days at 37° C. and after the incubation the O.D. at 590 nm of the plates were measured.
as §2

[3] = tested on: intracellular MAH 104 in THP-1 macrophages; assay: Treatment of MAH inside human THP-1 macrophages with antibiotics and metabolites (CFU); format: cell-based, Mycobacterium avium subsp hominissuis 104 (MAH104); details: for CFU/ml of macrophage lysate, 2 h: 2 h (baseline); for CFU/ml of macrophage lysate, 4 days: clarithromycin 16 μg/ml, amikacin 4 μg/ml, none 8.2 +/− 0.3 × 10^5
Description: Human THP-1 cell line (TIB-202) (American Type Culture Collection, Manassas, Va.) was cultivated in RPMI-1640 medium with 10% of heat-inactivated fetal bovine serum (FBS, GEMINI B10-PRODUCTS, Sacramento, Calif.), at 37° C. with 5% CO2. The THP-1 cells were maintained in 75 cm^2 tissue culture flasks. The differentiation of THP-1 monocytes into macrophages with PMA (phorbol 12-myristate 13-acetate) (SIGMA ALDRICH) and intracellular antibiotic killing assays were performed as previously described (Rojony et al., Clinical proteomics 2019; 16:39). […] As a negative control, differentiated THP-1 cells were incubated without any antibiotics and with no metabolites. THP-1 cells were replenished with new media containing antibiotics, or no antibiotic, every other day. Cells were lysed at 2 h (baseline) and day 4 and subsequently the number of viable bacteria was determined by CFU counting on 7H10 agar plates.

[4] = tested on: MAH (strain 104) in established biofilms; assay: Treatment of established MAH biofilms with antibiotics and metabolites (CFU); format: cell-based, Mycobacterium avium subsp hominissuis 104 (MAH104); details: for numbers of bacteria in biofilms / CFU/ml at 14 days: established biofilms; for numbers of bacteria in biofilms: antibiotic alone or co-treatment; for CFU/ml at 14 days: clarithromycin 16 μg/ml, amikacin 4 μg/ml, 0.05% propionic or butyric acid, 0.2% glycerol, none 4.2 +/− 0.5 × 10^8
Description: To assess the antibiotic tolerance of MAH biofilms to amikacin (4 μg/ml) and clarithromycin (16 μg/ml), biofilms were formed for 14 days as described herein. […] As a negative control, biofilms were incubated only with non-supplemented 7H9 without any antibiotics. […] Subsequently, 100 μl of 0.02% of Triton X-100 (final concentration 0.01%) was added to the established biofilms to mix, dilute and perform CFU analysis with the entire population of biofilms (attached and unattached).
Mycobacteria biofilms were first established and then treated or not treated with antibiotics. In parallel, biofilms were also co-treated with antibiotics and the targeted metabolites.

sessile MAH104 cells = assay: Growth and biofilm formation of pre-attached (sessile) cells in nutrient-limited media; format: cell-based, Mycobacterium avium subsp hominissuis 104 (MAH104); details: 0.05% fatty acids in non-supplemented 7H9, 7 days; blank 0.091±0.007
Description: (§3) Assays with biofilms incubated with propionic acid, butyric acid, and glycerol were performed to test whether these metabolites affect the formation of biofilms. All the experiments were made in non-supplemented 7H9. The effect of these metabolites was evaluated during biofilm formation, in pre-established biofilms and in M. avium cells pre-attached to polystyrene. To evaluate the effect of targeted metabolites during biofilm formation, mycobacteria suspensions were prepared and inoculated in 96 wells polystyrene plates, as already described, and biofilms were formed in the presence or not of the short-chain fatty acids at different concentrations (1%, 0.5%, 0.1%, 0.05% and 0.01%). For glycerol, only 0.2% was used. The biofilms were formed in 7H9 media at 37° C. for 7 days. For pre-established biofilms, MAH104 was again inoculated in 96 wells plates and biofilms were formed as described herein. […] It was also evaluated whether these metabolites could promote the growth of MAH104 cells present in biofilms through the measurement of […] every 24 hours. Finally, mycobacteria suspension with low density made in 7H9 broth (containing 1×10^6 bacteria/ml) were seeded in 96 wells polystyrene plates and incubated for 7 days at 37° C. […] The growth of pre-attached bacterial cells was followed every 24 hours through O.D.595 nm. The biofilm formation was evaluated by crystal violet.
Low mycobacterial cells density (10^6/ml) resuspended in non-supplemented 7H9 media were inoculated in 96-well plates and incubated for 7 days at 37° C. to allow the bacteria to attach into polystyrene. The supernatant was discarded to remove planktonic cells and pre-attached bacterium was incubated for 7 days in nutrient-limited media (non-supplemented 7H9). […] The growth of sessile mycobacteria was followed by O.D.595 nm measurement and biofilm formation was determined through crystal violet (O.D.570 nm), since the multiplication of bacteria cells is linked with the formation of biofilms. No growth was observed when sessile MAH104 cells were cultivated in non-supplemented 7H9 broth. […] It is also important to highlight that the O.D.570 nm value for sessile MAH104 forms incubated with non-supplemented 7H9 (O.D.570 nm=0.11±0.039) had no significant difference in comparison with the blank (O.D.570 nm=0.091±0.007) (P=0.37), showing no biofilm formation. […] FIG. 3A-D.

[5] = tested on: M. avium 104 static biofilms; assay: Static biofilm formation in the presence of metabolites (crystal violet); format: cell-based, Mycobacterium avium subsp hominissuis 104 (MAH104); details: 1% and 0.5%, 7H9, 7 days at 37° C., crystal violet
Description: Static biofilms were used in the present study as described previously (Rose S J, Bermudez L E., Infection and Immunity 2014; 82:405-12). Briefly, mycobacteria were taken from 7H10 agar plates and resuspended in deionized water (10^9 of colony forming units/ml; CFU/ml). The bacterial suspension was then washed 3 times with deionized water to remove any remaining of 7H10 media (3500 rpm for 20 minutes at 20° C.). After washing, the MAH104 were resuspended in 7H9 medium without any carbon sources (OADC, glycerol, tween 20 and tween 80) (non-supplemented 7H9) and suspensions were left alone to allow clumped bacteria to settle. The top half of the suspension was transferred to new tube and adjusted to 1×10^8 CFU/ml, using visual turbidity and optical density. Suspensions were inoculated in 96-well polystyrene plates (BD, Franklin Lakes, N.J.) (100 μl for each well [or 10^7 bacteria per well]) and biofilms were formed at 37° C. for 7 days or for 14 days when indicated. […] The raw O.D. at 570 nm values were discounted from O.D. 570 nm average of blank wells (wells with only 7H9 media).
as §3
The next step was to evaluate the capacity of tested substrates to promote the growth of mycobacteria cells that are present in biofilms. […] MAH 104 cells in the presence of non-supplemented 7H9 were used as a negative control. […]

MAH 3388 biofilm = assay: Amikacin with short-chain fatty acids on biofilm of lung isolate MAH 3388; format: cell-based; details: amikacin concentration: 4 mg/ml; untreated 9.4 +/− 0.2 × 10^7
Description: As a negative control, biofilms were incubated only with non-supplemented 7H9 without any antibiotics. […] Subsequently, 100 μl of 0.02% of Triton X-100 (final concentration 0.01%) was added to the established biofilms to mix, dilute and perform CFU analysis with the entire population of biofilms (attached and unattached).
Biofilms were established from an MAH strain isolated from the lungs of a patient (MAH 3388).

MAH 3393 biofilm = assay: Amikacin with short-chain fatty acids on biofilm of lung isolate MAH 3393; format: cell-based; details: amikacin concentration: 4 mg/ml; untreated 1.0 +/− 0.8 × 10^8

For `NC[C@H]1O[C@H](O[C@H]2[C@H](O)[C@@H](O[C@H]3O[C@H](CO)[C@@H](O)[C@H](N)[C@H]3O)[C@H](N)C[C@@H]2N)[C@H](N)C[C@@H]1O` [tobramycin], the “concentration in expectorated sputum (Mean)” value ([1]; 10 minutes after delivery of 300 mg by nebulizer) is listed as 1,237 μg/g of sputum and the “concentration in the lung epithelial fluid (induced sputum)” value ([1]; after 300 mg delivered by nebulizer) is listed as roughly 128 µg/g.
In the case of `CCC(=O)C(=O)O` [α-Keto-Butyric acid], the “metabolized by biofilm cultures” value (MAH104 biofilms) was “unable to metabolize”.
With polysorbate 40 [Tween 40] the “Planktonic (metabolite used)” value [2] was “+”, the “Biofilm (metabolite used)” value (MAH104 biofilms) was “+” and the “lower capacity of biofilms to use the substrate compared with planktonic cultures” value (MAH104 biofilms) was 3.8 fold.
In the case of `CC(=O)O` [Acetic Acid], the “lower capacity of biofilms to use the substrate compared with planktonic cultures” value (MAH104 biofilms) was 2.55 fold.
For `CC(=O)C(=O)O` [Pyruvic acid], the “lower capacity of biofilms to use the substrate compared with planktonic cultures” value (MAH104 biofilms) was 2.21 fold.
With polysorbate 80 [Tween 80] the “Planktonic (metabolite used)” value [2] was “+”, the “Biofilm (metabolite used)” value (MAH104 biofilms) was “+” and the “lower capacity of biofilms to use the substrate compared with planktonic cultures” value (MAH104 biofilms) was 3.45 fold.
In the case of polysorbate 20 [Tween 20], the “Planktonic (metabolite used)” value [2] was “+”, the “Biofilm (metabolite used)” value (MAH104 biofilms) was “+” and the “lower capacity of biofilms to use the substrate compared with planktonic cultures” value (MAH104 biofilms) was 5.4 fold.
For `CC[C@H]1OC(=O)[C@H](C)[C@@H](O[C@H]2C[C@@](C)(OC)[C@@H](O)[C@H](C)O2)[C@H](C)[C@@H](O[C@@H]2O[C@H](C)C[C@H](N(C)C)[C@H]2O)[C@](C)(OC)C[C@@H](C)C(=O)[C@H](C)[C@@H](O)[C@]1(C)O` [Clarithromycin, reference compound], the “CFU/ml of macrophage lysate, 2 h” value [3] was 4.5 +/− 0.4 × 10^5 CFU/ml, the “CFU/ml of macrophage lysate, 4 days” value [3] was 3.9±0.3×10^4 CFU/ml and 3.9 +/− 0.3 × 10^4* (1) CFU/ml and the “numbers of bacteria in biofilms” value [4] was 8.9±0.8×10^7. For the same compound, the “CFU/ml at 14 days” value [4] was 8.9 +/− 0.8 × 10^7*(1) CFU/ml.
For `O=C(O)CCCCCCCCC(=O)O` [Sebacic acid], the “planktonic O.D.590 nm” value ([2]; Biolog plate, end-point) was 0.210±0.069 and the “Biofilm O.D.590 nm” value (MAH104 biofilms; Biolog plate, end-point) was 0.411±0.059.
In the case of `CCCCCC(=O)O` [Caproic acid], the “O.D.570 nm of sessile MAH104 (crystal violet, biofilm formation)” value (sessile MAH104 cells) was 0.177±0.017, the “CFU/ml of macrophage lysate, 2 h” value [3] was 3.1 +/− 0.4 × 10^5 CFU/ml and the “CFU/ml of macrophage lysate, 4 days” value [3] was 5.3 +/− 0.4 × 10^5* (1) CFU/ml. For the same compound, the “killing capacity of clarithromycin” value ([4]; established M. avium 104 biofilms, 72 hours, FIG. 4A-D) was “increase”, the “CFU/ml at 14 days” value [4] was 6.4 +/− 0.2 × 10^6*(1) CFU/ml and the “biofilm formation with 1% and 0.5% of fatty acid” value [5] was “significant decrease”. For the same compound, the “lower capacity of biofilms to use the substrate compared with planktonic cultures” value (MAH104 biofilms) was 4.27 fold.
For `COC(=O)C(C)=O` [Methyl Pyruvate], the “lower capacity of biofilms to use the substrate compared with planktonic cultures” value (MAH104 biofilms) was 1.8 fold.
With `CCC(O)C(=O)O` (stereo not drawn) [α-Hydroxy Butyric acid] the “metabolized by biofilm cultures” value (MAH104 biofilms) was “unable to metabolize”.
For `CC(=O)CC(=O)O` [Acetoacetic acid], the “metabolized by biofilm cultures” value (MAH104 biofilms) was “unable to metabolize”.
With `NCC[C@H](O)C(=O)N[C@@H]1C[C@H](N)[C@@H](O[C@H]2O[C@H](CN)[C@@H](O)[C@H](O)[C@H]2O)[C@H](O)[C@H]1O[C@H]1O[C@H](CO)[C@@H](O)[C@H](N)[C@H]1O` [Amikacin, reference compound] the “CFU/mL, MAH 3388” value (MAH 3388 biofilm) was 5.4 +/− 0.9 × 10^7*(1) CFU/mL, the “CFU/mL, MAH 3393” value (MAH 3393 biofilm) was 5.2 +/− 0.6 × 10^7*(1) CFU/mL and the “CFU/ml of macrophage lysate, 2 h” value [3] was 4.5 +/− 0.4 × 10^5 CFU/ml. The “CFU/ml of macrophage lysate, 4 days” value [3] was 4.8±0.5×10^4 CFU/ml and 4.8 +/− 0.5 × 10^4* (1) CFU/ml, the “numbers of bacteria in biofilms” value [4] was 5.8±0.5×10^7 and the “CFU/ml at 14 days” value [4] was 5.8 +/− 0.5 × 10^7*(1) CFU/ml.
